One test has as its target T1, KRAS G12C (Homo sapiens, UniProt P01116, G12C).
T1 construct: Kras (aa 2-169), GST; purchased Reaction Biology Corporation (RBC)
The test can be described thus: KRAS G12C nucleotide exchange assay (SOS1 mediated, HTRF). In kind it is biochemical. The note with it: 1 hr pre-incubation at RT, read-out: IC50 (inhibition of KRas G12C). Here is the method:
Exemplary compounds were tested for ability to inhibit KRas G12C.
KRAS target engagement (IC50 determination) was performed using a KRAS G12C nucleotide exchange assay (Reaction Biology Corporation). Specifically, compounds were tested against KRAS G12C in 10-point concentration IC50 mode with 3-fold serial dilution at a starting concentration of 10 μM. ARS1620 was used as a control. Compounds were pre-incubated with protein for 1 hr at RT. Parameters for the assay were:
In the method, Kras was mixed with a-GST Tb antibody (1.5× solution) and […] was delivered to reaction wells. Compounds were delivered using acoustic dispenser (Echo, Labcyte). Kras/aGST-Tb Ab/compound mixture was incubated for 1 hour at room temperature. A 3× solution of SOS1 and GTP* was prepared in reaction buffer. A […] aliquot of SOS1/GTP* solution was added to reaction well to initiate the exchange reaction. No—SOS1 reaction or max compound concentration was used as blank. IC50 determination was performed using a Sigmoidal dose response (variable slope) equation.

A further test has as its system HEK293 cells. The test can be described thus: Cellular growth inhibition assay (CellTiter-Glo), HEK293 cells. In kind it is cell-based. Conditions: three days compound treatment, CellTiter-Glo 2.0, read-out: CTG HEK293 GI50. In outline:
(§1)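 GI50 derived by four-parameter regression of luminescence (CellTiter-Glo 2.0) at Day 0 and Day 3, normalized to DMSO wells. Cells (HeLa, HEK293; 500/well, DMEM plus 10% FBS) were dosed with compound dilutions 24 h post-seeding and exposed for three days at 37 °C.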

In another test the test system is HeLa cells. Kind of test: Cellular growth inhibition assay (CellTiter-Glo), HeLa cells. The test is classed as cell-based. The note with it: three days compound treatment, CellTiter-Glo 2.0, read-out: CTG HELA GI50. An outline of the steps:
as §1

pIC50: −log10 of the molar value. Read-outs that look alike come from different tables or passages of the source.

T1 sequence (P01116 2-169 isoform P01116-2 G12C): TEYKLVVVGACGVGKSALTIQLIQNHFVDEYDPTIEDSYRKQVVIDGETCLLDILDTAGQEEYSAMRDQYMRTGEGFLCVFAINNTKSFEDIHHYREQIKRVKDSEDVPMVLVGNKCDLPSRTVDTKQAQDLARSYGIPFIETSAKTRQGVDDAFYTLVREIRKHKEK

For `C=C(F)C(=O)N1CCN(c2nc(OC[C@@H]3CCCN3CCCOCCOCCN(C)C(=O)N3N=C(c4cc(F)ccc4F)SC3(CCCN)c3ccccc3)nc3c2CCN(c2cccc4cccc(Cl)c24)C3)C[C@@H]1CC#N` (stereo partly drawn) [Compound I-99, 2-(3-aminopropyl)-N-[2-[2-[3-[(2S)-2-[[7-(8-chloro-1-naphthyl)-4-[(3S)-3-(cyanomethyl)-4-(2-fluoroprop-2-enoyl)piperazin-1-yl]-6,8-dihydro-5H-pyrido[3,4-d]pyrimidin-2-yl]oxymethyl]pyrrolidin-1-yl]propoxy]ethoxy]ethyl]-5-(2,5-difluorophenyl)-N-methyl-2-phenyl-1,3,4-thiadiazole-3-carboxamide], at KRAS G12C, the negative logarithm of the IC50 (pIC50) was greater than 7.00. For the same compound, the GI50 in the test with HEK293 cells (Homo sapiens, 72 h) was 1500 to 5000 nM; with HeLa cells (Homo sapiens, 72 h), 500 to 1500 nM.
The matching figures for `C=C(F)C(=O)N1CCN(c2nc(OC[C@@H]3CCCN3CCCOCCOCCOCCOCCOCCOCCN(C)C(=O)N3N=C(c4cc(F)ccc4F)S[C@@]3(CCCN)c3ccccc3)nc3c2CCN(c2cccc4cccc(Cl)c24)C3)C[C@@H]1CC#N` [Compound I-100, (2S)-2-(3-aminopropyl)-N-[2-[22[2-[2-[2-[2-[3-[(2S)-2-[[7-(8-chloro-1-naphthyl)-4-[(3S)-3-(cyanomethyl)-4-(2-fluoroprop-2-enoyl)piperazin-1-yl]-6,8-dihydro-5H-pyrido[3,4-d]pyrimidin-2-yl]oxymethyl]pyrrolidin-1-yl]propoxy]ethoxy]ethoxy]ethoxy]ethoxy]ethoxy]ethyl]-5-(2,5-difluorophenyl)-N-methyl-2-phenyl-1,3,4-thiadiazole-3-carboxamide]: greater than 7.00, greater than 5000 nM and 1500 to 5000 nM.
With `C=C(F)C(=O)N1CCN(c2nc(OC[C@@H]3CCCN3CCCOCCOCCOCCOCCOCCOCCOCCOCCN(C)C(=O)N3N=C(c4cc(F)ccc4F)S[C@@]3(CCCN)c3ccccc3)nc3c2CCN(c2cccc4cccc(Cl)c24)C3)C[C@@H]1CC#N` [Compound I-101], on KRAS G12C, the negative-log IC50 (pIC50) is greater than 7.00. Besides, the 50% growth inhibitory concentration (GI50) with HEK293 cells and with HeLa cells was 1500 to 5000 nM in each case.
With `C=C(F)C(=O)N1CCN(c2nc(OC[C@@H]3CCCN3CCCN3CCN(CCNC(=O)c4ccc(Nc5ncc6c(n5)N(C5CCCC5)[C@H](CC)C(=O)N6C)c(OC)c4)CC3)nc3c2CCN(c2cccc4cccc(Cl)c24)C3)C[C@@H]1CC#N` [Compound I-106, N-[2-[4-[3-[(2S)-2-[[7-(8-chloro-1-naphthyl)-4-[(3S)-3-(cyanomethyl)-4-(2-fluoroprop-2-enoyl)piperazin-1-yl]-6,8-dihydro-5H-pyrido[3,4-d]pyrimidin-2-yl]oxymethyl]pyrrolidin-1-yl]propyl]piperazin-1-yl]ethyl]-4-[[(7R)-8-cyclopentyl-7-ethyl-5-methyl-6-oxo-7H-pteridin-2-yl]amino]-3-methoxy-benzamide], at KRAS G12C, the negative logarithm of the IC50 (pIC50) was greater than 7.00. For the same compound, the GI50 with HEK293 cells (Homo sapiens, 72 h) fell in the range of 500 to 1500 nM; in the test with HeLa cells (Homo sapiens, 72 h), 500 to 1500 nM.
`CC[C@@H]1C(=O)N(C)c2cnc(Nc3ccc(C(=O)NCCOCCOCCN(C)C/C=C/C(=O)N4CCN(c5nc(OC[C@@H]6CCCN6C)nc6c5CCN(c5cccc7cccc(Cl)c57)C6)C[C@@H]4CC#N)cc3OC)nc2N1C1CCCC1` [Compound I-107, N-[2-[2-[2-[[(E)-4-[(2S)-4-[7-(8-chloro-1-naphthyl)-2-[[(2S)-1-methylpyrrolidin-2-yl]methoxy]-6,8-dihydro-SH-pyrido[3,4-d]pyrimidin-4-yl]-2-(cyanomethyl)piperazin-1-yl]-4-oxo-but-2-enyl]-methyl-amino]ethoxy]ethoxy]ethyl]-4-[[(7R)-8-cyclopentyl-7-ethyl-5-methyl-6-oxo-7H-pteridin-2-yl]amino]-3-methoxy-benzamide]: the pIC50 at KRAS G12C is greater than 7.00. In addition, the 50% growth inhibitory concentration (GI50) is less than 500 nM in the test on HEK293 cells (Homo sapiens, 72 h) and less than 500 nM in the test on HeLa cells (Homo sapiens, 72 h).
In the case of `CC[C@@H]1C(=O)N(C)c2cnc(Nc3ccc(C(=O)NCCOCCOCCOCCOCCOCCOCCN(C)C/C=C/C(=O)N4CCN(c5nc(OC[C@@H]6CCCN6C)nc6c5CCN(c5cccc7cccc(Cl)c57)C6)C[C@@H]4CC#N)cc3OC)nc2N1C1CCCC1` [Compound I-109, N-[2-[2-[2-[2-[2-[2-[2-[[(E)-4-1[(2S)-4-1[7-(8-chloro-1-naphthyl)-2-[[(2S)-1-methylpyrrolidin-2-yl]methoxy]-6,8-dihydro-5Hpyrido1[3,4-d]pyrimidin-4-yl]-2-(cyanomethyl)piperazin-1-yl]-4-oxo-but-2-enyl]-methylamino]ethoxy]ethoxy]ethoxy]ethoxy]ethoxy]ethoxy]ethyl]-4-[[(7R)-8-cyclopentyl-7-ethyl-5-methyl-6-oxo-7H-pteridin-2-yl]amino]-3-methoxy-benzamide], the pIC50 at KRAS G12C was greater than 7.00. Also, the concentration for 50% growth inhibition (GI50) with HEK293 cells (Homo sapiens, 72 h) was 1500 to 5000 nM; in the test on HeLa cells (Homo sapiens, 72 h), 500 to 1500 nM.
`CC[C@@H]1C(=O)N(C)c2cnc(Nc3ccc(C(=O)NCCOCCOC4CCN(C/C=C/C(=O)N5CCN(c6nc(OC[C@@H]7CCCN7C)nc7c6CCN(c6cccc8cccc(Cl)c68)C7)C[C@@H]5CC#N)CC4)cc3OC)nc2N1C1CCCC1` [Compound I-110, N-[2-[2-[[1-[(E)-4-[(2S)-4-[7-(8-chloro-1-naphthyl)-2-[[(2S)-1-methylpyrrolidin-2-yl]methoxy]-6,8-dihydro-5H-pyrido[3,4-d]pyrimidin-4-yl]-2-(cyanomethyl)piperazin-1-yl]-4-oxo-but-2-enyl]-4-piperidyl]oxy]ethoxy]ethyl]-4-[[(7R)-8-cyclopentyl-7-ethyl-5-methyl-6-oxo-7H-pteridin-2-yl]amino]-3-methoxy-benzamide]: the pIC50 at KRAS G12C is greater than 7.00. In addition, the GI50 with HEK293 cells (Homo sapiens, 72 h) is 500 to 1500 nM; with HeLa cells (Homo sapiens, 72 h), 500 to 1500 nM.

Source of the values: patent publication US20250032623A1, “HETEROBIFUNCTIONAL COMPOUNDS AND THEIR USE IN TREATING DISEASE” (HALDA THERAPEUTICS OPCO, INC., priority 2021, published 2025).
